The values that follow come from the NIST ThermoML archive (doi:10.1021/acs.jced.6b00813).

Numbers after ± are expanded uncertainties.

A short description of data set [1]: wn = mass fraction of the nth substance listed. As to conditions: 101.3 kPa, Liquid, Pycnometric method.
The conditions of data set [2]: Crystal; Titration method.

In the case of `[Ca+2].[Cl-].[Cl-]` [calcium chloride] + O, the mass density in data set [1] (273.15 K, w1 = 0.373) worked out at 1427 ± 2 kg/m3.
As to `O=[PH2][O-].O=[PH2][O-].[Ca+2]` [calcium hypophosphite] + O, the mass density in data set [1] (268.75 K, w1 = 0.1397) is recorded as 1133 ± 2 kg/m3; in data set [1] (270.15 K, w1 = 0.0909), 1089 ± 2 kg/m3; in data set [1] (271.4 K, w1 = 0.0476) it was 1047 ± 2 kg/m3; in data set [1] (272.15 K, w1 = 0.0244), 1024 ± 2 kg/m3; in data set [1] (273.15 K, w1 = 0.1381), 1132 ± 2 kg/m3; in data set [1] (283.15 K, w1 = 0.1362) it was 1131 ± 2 kg/m3. Further, the mass density is given as 1128 ± 2 kg/m3 in data set [1] (293.15 K, w1 = 0.1341); 1125 ± 2 kg/m3 in data set [1] (303.15 K, w1 = 0.1322); 1121 ± 2 kg/m3 in data set [1] (313.15 K, w1 = 0.1304); 1117 ± 2 kg/m3 in data set [1] (323.15 K, w1 = 0.1293); 1114 ± 2 kg/m3 in data set [1] (333.15 K, w1 = 0.1292); 1111 ± 3 kg/m3 in data set [1] (343.15 K, w1 = 0.1292). The mass density in data set [1] (353.15 K, w1 = 0.1295) is listed as 1107 ± 3 kg/m3; in data set [1] (363.15 K, w1 = 0.1297), 1103 ± 2 kg/m3; in data set [1] (373.15 K, w1 = 0.1302) it was 1103 ± 2 kg/m3; in data set [1] (376.95 K, w1 = 0.1302) it was 1103 ± 2 kg/m3.
For `O=[PH2][O-].[Na+]` [sodium phosphinate] + O, in data set [1] (273.15 K, w1 = 0.4776), the mass density is reported as 1381 ± 2 kg/m3.
Regarding `O` [water], the Normal melting temperature in data set [2] amounted to 0.00 ± 0.77 °C.
`O` [water] + O=[PH2][O-].O=[PH2][O-].[Ca+2]: in data set [1] (273.15 K, w2 = 0), the mass density is 999 ± 4 kg/m3.
